Laboratory results from the NIST ThermoML archive (doi:10.1021/je034251+).
± gives the expanded uncertainty stated by the source.

Conditions: for mass density: isochoric method

COC [dimethyl ether]
Conditions	Critical temperature [K]	mass density [kg/m3]
301.82 K, Liquid	–	654.54 ± 0.33
320.08 K, Liquid	–	623.9 ± 0.33
330.63 K, Liquid	–	604.34 ± 0.33
339.47 K, Liquid	–	585.82 ± 0.33
347.34 K, Liquid	–	567.13 ± 0.32
359 K, Liquid	–	540.45 ± 0.32
365.69 K, Liquid	–	522.25 ± 0.32
366.69 K, Gas	–	66.75 ± 0.2
372.15 K, Liquid	–	503.13 ± 0.32
378.81 K, Liquid	–	479.19 ± 0.32
380.95 K, Gas	–	96.42 ± 0.2
384.5 K, Liquid	–	454.66 ± 0.32
390.86 K, Gas	–	130.05 ± 0.21
393.65 K, Liquid	–	405.87 ± 0.32
396.06 K, Gas	–	161.3 ± 0.22
398.21 K, Liquid	–	361.58 ± 0.34
399.34 K, Gas	–	203.55 ± 0.28
400.32 K, Liquid	–	299.12 ± 0.43
400.35 K, Gas	–	253.84 ± 0.54
400.35 K, Liquid	–	285.01 ± 0.47
400.36 K, Gas	–	264.02 ± 0.63
400.36 K, Liquid	–	278.92 ± 0.49
400.38 K, Liquid	–	276.19 ± 0.5
Liquid, Visual observation in an unstirred cell	400.38 ± 0.062	–

Conditions	Critical density [kg/m3]
Liquid	272 ± 2
